From patent US7115639B2, “Pyrrolidine oxadiazole- and thiadiazole oxime derivatives being oxytocin receptor antagonists” (Applied Research Systems ARS Holding N.V., priority 2001, dated 2006)

How the values were obtained:
[1] = system: oxytocin-induced uterine contractions in the rat; assay: In vivo model for inhibition of uterine contractions; conditions: subcutaneous, NP3S, 5 ml/kg
Protocol: d) In Vivo Model for Inhibition of Uterine Contractions
The assay intends to show the biological effect of tested compounds in an in vivo model of preterm labor, premature birth.
Non-pregnant Charles River CD(SD) BR female rats (9–10 weeks old, 200–250 g) were treated at 18 and 24 hours before the experiment with 250 μg/kg, i.p. diethylstilbestrol (DES). For the assay, the animal was anaesthetised by urethane (1.75 g/kg, i.p.) and placed on an homeothermic operating table. The trachea was isolated and cannulated with a suitable polyethylene (PE) tubing. A midline incision at the hypogastrium level was made and one uterine horn exposed, its cephalic end cannulated with a PE240 tubing and, after filling the internal cavity with 0.2 ml of sterile physiological saline, connected to a “Gemini” amplifying/recording system via a P231D Gould Statham pressure transducer, in, order to measure said pressure. For the i.v. route of administration of the test compounds, one jugular vein was isolated and cannulated with a PE60 tubing connected to a butterfly needle to allow the administration by a dispensing syringe. In the case of intraduodenal administration of the test compounds, the duodenum was isolated and similarly cannulated through a small incision in its wall. One carotid artery was also isolated and cannulated with PE60 catheter and connected to a suitable syringe for blood sample collection (see below). After a stabilization period, the same dose of oxytocin was repeatedly injected intravenously at 30-min intervals. […] Further injections of the same dose of oxytocin were then made for a suitable time after treatment to assess inhibitory effects of the compounds under study. The contractile response of the uterus to oxytocin was quantified by measuring the intrauterine pressure and the number of contractions.
A total of six animals is forming one group which is treated with a given test compound at a given concentration (see above).
The effect of the test compounds were evaluated by comparing pre- and post-treatment pressure values. In addition, at 2, 30, 90 and 210 minutes after test compound administration, a 0.5-ml blood sample was withdrawn from the cannulated carotid artery of each experimental animal. Plasma was obtained by standard laboratory procedure and the resulting samples were stored at −20° C.
The activities of the pyrrolidine derivatives claimed in the formula I were assessed using the above described in vivo biological assay. The values refer to the capacity of the example compound according to formula I to effectively antagonize oxytocin-induced uterine contractions in the rat.

[2] = system: oxytocin-induced uterine contractions in the rat; assay: as above; conditions: subcutaneous, NP3S, 5 ml/kg, 10 mg/kg

- melting point: 141 °C
Structure (SMILES): CO/N=C1/C[C@@H](c2nc(CCO)no2)N(C(=O)c2ccc(-c3ccccc3)cc2)C1 [(3Z,5S)-1-([1,1′-biphenyl]-4-ylcarbonyl)-5-[3-(2-hydroxyethyl)-1,2,4-oxadiazol-5-yl]-3-pyrrolidinone O-methyloxime]
- % Reduction of Uterine Contraction ([1]; 1 mg/kg): −13.2 ± 5.6%
- % Reduction of Uterine Contraction ([1]; 3 mg/kg): −30.2 ± 1.1%
- % Reduction of Uterine Contraction ([1]; 30 mg/kg): −57.5 ± 8.6%
- % Reduction of Uterine Contraction [2]: −39.7 ± 7.2%
